Test results: patent US11185598B2, “Preparation of stabilised x-ray diagnostic composition” (GE HEALTHCARE AS, priority 2010, dated 2021)

Key:
Assay type in all cases: physicochemical
[1] = Saturation / dissolution temperature of contrast agent solution in water
Description: The injection solution of Compound I is highly supersaturated. The nucleation (precipitation) in the injection solution at storage conditions is strongly undesirable. The physical stability of the solution, i.e. prevention of the nucleation for a certain time at storage conditions, may be improved substantially by heat treatment of the solution well above its saturation temperature for a sufficiently long period of time. A solution in which the concentration of the solute (API) exceeds the equilibrium solute concentration at a given temperature is said to be supersaturated. […] Such solutions are denoted as supersaturated. Saturation temperature is the temperature where all solid API (amorphous and crystalline) apparently dissolves completely. As the solubility of Compound I decreases with decreasing temperature, the supersaturation increases.
For a compound or contrast agent with a defined crystalline state (single polymorph) at one side, and a solvent including dissolved admixtures on the other, the concentration of the agent in the solution in equilibrium with the crystalline state is called solubility. At this concentration the activity of the agent is equal in both phases. A system out of the equilibrium stage tends to change the solution concentration towards the equilibrium (solubility), e.g. dissolve crystals when under-saturated, or crystallize out compound when supersaturated. Normally, the solubility changes, usually increases, with temperature. For the purpose, we define the temperature at which the crystal solubility is equal to the concentration in the particular solution as “dissolution temperature”. When a solution contains crystals, the crystals dissolve at temperatures above the “dissolution temperature”, remaining a crystal free solution. When the amount of the crystals is small, the concentration increase by dissolution may be neglected.

[2] = Solubility in water (comparison)
[3] = Stability of Compound I at different pH: inorganic iodide and pH after autoclaving; details: 320 mg I/ml, 121° C. 120 minutes or 134° C. 60 minutes
Method: Experiments were performed to investigate the level of inorganic iodide generated as a result of degeneration of Compound I as a result of a pH and heating regime. Reference is made to FIGS. 1 and 2. The heat load was controlled by using a BIER-vessel for the steam heat sterilisation. Formulated Compound I (drug product, DP, 320 mg I/ml) was added 25% HCl to obtain 4 series of 6 vials with a pH of 2.0, 3.1, 4.0 and 7.7, respectively.
DP (10 ml) was filled in 10 ml vials. 3 vials from each series were autoclaved at 121° C. for 120 minutes and the remaining 3 vials were autoclaved at 134° C. for 60 minutes. The samples, including 2 reference samples, were subjected to pH and iodide analyses.

[4] = Inorganic iodide in X-ray composition prepared by the process of the invention (400 litre batch); details: 320 mg I/ml
Method: 261 kg of Compound I was dissolved in 250 litres of water for injection (WFI) and added 44 g Na2Ca-EDTA.2H2O in the mixing tank (A). HCl 5M was used to set the solution to pH 3. Under these conditions, to the composition underwent heating for 40 minutes at 122° C. […] This solution was cooled to approximately 50° C. and filtered through a 10 kDa ultrafilter. The remaining WFI to yield a solution of 320 mg I/ml of compound I was used to rinse the ultrafilter by dilution of the concentrated retentate. The filtered solution was dispensed and autoclaved for 20 minutes at 121° C. After autoclaving, the concentration of inorganic iodide was 10 μg/ml, which is approximately a fifth of the concentration resulting from a conventional production not using the process of the invention.

[5] = Iodide level after steam heat sterilisation, conventional heating regime; details: 134° C. for 45 minutes, no reduced pH
Method: During the development of new iodinated X-ray contrast agents, several heating regimes have been tested to find the parameters to be used for the secondary productions. Among these are end heat steam sterilization at 134° C. or 121° C. for 45 minutes or more, pre-heating in the mixing tank above the dissolution temperature (e.g. 110-111° C./330 mg I/ml) using different regimes followed by end heat steam sterilization etc. Although some of these heating regimes might be capable of providing a physically stable solution, they may cause high levels of free iodide due to degeneration of the iodinated X-ray contrast agent (Scheme 1). […] This is above the acceptable level.

dissolution temperature ([1]; at 330 mg I/ml) | dissolution temperature ([1]; water for injection as solvent, concentration range 270-380 mg I/ml) | solubility in water compared with iodixanol [2] | change in pH after autoclaving ([3]; start pH in the range 2-4) | iodide levels after autoclaving ([3]; start pH in the range 2-4) | change in pH after autoclaving ([3]; start pH of 7.7) | iodide levels after autoclaving ([3]; start pH of 7.7) | inorganic iodide concentration relative to conventional production not using the process ([4]; after autoclaving) | concentration of inorganic iodide after autoclaving ([4]; heated 40 minutes at 122° C. at pH 3, then pH 7.3, autoclaved 20 minutes at 121° C.) | iodide levels after steam heat sterilisation [5] | SMILES | saturation temperature ([1]; solution of about 320 mg I/ml in water)
110-111 °C | ~110 °C | lower solubility in water than iodixanol | no significant change in pH | only a minor increase in iodide levels | corresponding drop in pH | high iodide levels | approximately a fifth | 10 µg/mL | 75-85 μg I/ml | O=CN(CC(O)CN(C=O)c1c(I)c(C(=O)NCC(O)CO)c(I)c(C(=O)NCC(O)CO)c1I)c1c(I)c(C(=O)NCC(O)CO)c(I)c(C(=O)NCC(O)CO)c1I (centres unmarked) [Compound I, 5-[formyl-[3-[formyl-[3,5-bis(2,3-dihydroxypropylcarbamoyl)-2,4,6-triiodophenyl]amino]-2-hydroxypropyl]amino]-N,N′-bis(2,3-dihydroxypropyl)-2,4,6-triiodobenzene-1,3-dicarboxamide] | 
 |  |  |  |  |  |  |  |  |  | CC(=O)N(CC(O)CN(C(C)=O)c1c(I)c(C(=O)NCC(O)CO)c(I)c(C(=O)NCC(O)CO)c1I)c1c(I)c(C(=O)NCC(O)CO)c(I)c(C(=O)NCC(O)CO)c1I (centres unmarked) [iodixanol, reference compound] | approximately 92 °C
